PubChem BioAssay (NCI)
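Protocol summary: plate cells (96-well), add compound at 5 concentrations, incubate 48 h, interpolate endpoints linearly. At the GI50, growth is halved. TGI marks complete inhibition of growth.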

Legend:
Assay in all cases: NCI tumour cell line growth inhibition, 48 h
SK-MEL-2 melanoma = test system: SK-MEL-2 melanoma
COLO 205 colon = test system: COLO 205 colon
SNB-19 CNS = test system: SNB-19 CNS
HT29 colon = test system: HT29 colon
TK-10 renal = test system: TK-10 renal
HS 578T breast = test system: HS 578T breast
SK-OV-3 ovarian = test system: SK-OV-3 ovarian
OVCAR-5 ovarian = test system: OVCAR-5 ovarian
NCI-H23 lung = test system: NCI-H23 lung
A549 NSCLC = test system: A549 NSCLC
OVCAR-4 ovarian = test system: OVCAR-4 ovarian
UACC-257 melanoma = test system: UACC-257 melanoma
K-562 leukemia = test system: K-562 leukemia
MDA-MB-231 breast = test system: MDA-MB-231 breast
NCI-H522 lung = test system: NCI-H522 lung
DU-145 prostate = test system: DU-145 prostate
NCI/ADR-RES ovarian = test system: NCI/ADR-RES ovarian
OVCAR-3 ovarian = test system: OVCAR-3 ovarian
UO-31 renal = test system: UO-31 renal
SF-539 CNS = test system: SF-539 CNS
LOX IMVI melanoma = test system: LOX IMVI melanoma
RPMI-8226 leukemia = test system: RPMI-8226 leukemia
EKVX NSCLC = test system: EKVX NSCLC
CAKI-1 renal = test system: CAKI-1 renal
A498 renal = test system: A498 renal
RXF 393 renal = test system: RXF 393 renal
HOP-62 NSCLC = test system: HOP-62 NSCLC
SW-620 colon = test system: SW-620 colon
NCI-H460 lung = test system: NCI-H460 lung
786-0 renal = test system: 786-0 renal
HCC-2998 colon = test system: HCC-2998 colon
U251 CNS = test system: U251 CNS
PC-3 prostate = test system: PC-3 prostate
SF-268 CNS = test system: SF-268 CNS
SNB-75 CNS = test system: SNB-75 CNS
SK-MEL-5 melanoma = test system: SK-MEL-5 melanoma
UACC-62 melanoma = test system: UACC-62 melanoma
IGROV1 ovarian = test system: IGROV1 ovarian
M14 melanoma = test system: M14 melanoma
MOLT-4 leukemia = test system: MOLT-4 leukemia
HL-60(TB) leukemia = test system: HL-60(TB) leukemia
HCT-116 colon = test system: HCT-116 colon
SF-295 CNS = test system: SF-295 CNS
MDA-MB-435 = test system: MDA-MB-435
BT-549 breast = test system: BT-549 breast
SR leukemia = test system: SR leukemia
SN12C renal = test system: SN12C renal
MCF7 breast = test system: MCF7 breast
MALME-3M melanoma = test system: MALME-3M melanoma
SK-MEL-28 melanoma = test system: SK-MEL-28 melanoma
KM12 colon = test system: KM12 colon
ACHN renal = test system: ACHN renal
OVCAR-8 ovarian = test system: OVCAR-8 ovarian
HCT-15 colon = test system: HCT-15 colon
NCI-H226 lung = test system: NCI-H226 lung
CCRF-CEM leukemia = test system: CCRF-CEM leukemia
HOP-92 NSCLC = test system: HOP-92 NSCLC

## CCCCCCCCSC1=CC(=O)C(OC)=C(OC)C1=O
SK-MEL-2 melanoma
  GI50: 4.3 µM
  TGI: 13.7 µM
COLO 205 colon
  GI50: 4.17 µM
  TGI: 14.6 µM
SNB-19 CNS
  GI50: 13.7 µM
  TGI: 27.3 µM
HT29 colon
  GI50: 3.75 µM
  TGI: 12.6 µM
TK-10 renal
  GI50: 2.06 µM
  TGI: 3.95 µM
HS 578T breast
  GI50: 2.64 µM
  TGI: 9.85 µM
SK-OV-3 ovarian
  GI50: 17.6 µM
  TGI: 36.4 µM
OVCAR-5 ovarian
  GI50: 4.25 µM
  TGI: 16.7 µM
NCI-H23 lung
  GI50: 3.36 µM
  TGI: 16.2 µM
A549 NSCLC
  GI50: 5.49 µM
  TGI: 18.5 µM
OVCAR-4 ovarian
  GI50: 1.27 µM
  TGI: 3.14 µM
UACC-257 melanoma
  GI50: 1.67 µM
  TGI: 4.17 µM
K-562 leukemia
  GI50: 2.73 µM
  TGI: > 100 µM
MDA-MB-231 breast
  GI50: 3.5 µM
  TGI: 8.16 µM
NCI-H522 lung
  GI50: 0.326 µM
  TGI: 1.49 µM
DU-145 prostate
  GI50: 7.23 µM
  TGI: 20.5 µM
NCI/ADR-RES ovarian
  GI50: 2.49 µM
  TGI: 7.1 µM
OVCAR-3 ovarian
  GI50: 1.45 µM
  TGI: 2.85 µM
UO-31 renal
  GI50: 1.77 µM
  TGI: 3.31 µM
SF-539 CNS
  GI50: 2.54 µM
  TGI: 5.9 µM
LOX IMVI melanoma
  GI50: 0.767 µM
  TGI: 2.11 µM
RPMI-8226 leukemia
  GI50: 1.27 µM
  TGI: > 100 µM
EKVX NSCLC
  GI50: 10.1 µM
  TGI: 24.8 µM
CAKI-1 renal
  GI50: 6.11 µM
  TGI: 54.6 µM
A498 renal
  GI50: 6.13 µM
  TGI: 20.4 µM
RXF 393 renal
  GI50: 1.61 µM
  TGI: 3.46 µM
HOP-62 NSCLC
  GI50: 11.1 µM
  TGI: 24.4 µM
SW-620 colon
  GI50: 1.71 µM
  TGI: 3.37 µM
NCI-H460 lung
  GI50: 6.29 µM
  TGI: 19.8 µM
786-0 renal
  GI50: 7.86 µM
  TGI: 20.1 µM
HCC-2998 colon
  GI50: 11.3 µM
  TGI: 24.4 µM
U251 CNS
  GI50: 2.8 µM
  TGI: 11.7 µM
PC-3 prostate
  GI50: 6.24 µM
  TGI: 23.3 µM
SF-268 CNS
  GI50: 3.75 µM
  TGI: 14.7 µM
SNB-75 CNS
  GI50: 2.21 µM
  TGI: 16.7 µM
SK-MEL-5 melanoma
  GI50: 1.6 µM
  TGI: 8.79 µM
UACC-62 melanoma
  GI50: 3.5 µM
  TGI: 13.9 µM
IGROV1 ovarian
  GI50: 5.66 µM
  TGI: 23.4 µM
M14 melanoma
  GI50: 2.06 µM
  TGI: 9.86 µM
MOLT-4 leukemia
  GI50: 1.87 µM
  TGI: > 100 µM
HL-60(TB) leukemia
  GI50: 0.437 µM
  TGI: 21.4 µM
HCT-116 colon
  GI50: 1.19 µM
  TGI: 2.54 µM
SF-295 CNS
  GI50: 6.75 µM
  TGI: 31.4 µM
MDA-MB-435
  GI50: 1.88 µM
  TGI: 7.57 µM
BT-549 breast
  GI50: 7 µM
  TGI: 19.4 µM
SR leukemia
  GI50: 2.27 µM
  TGI: > 100 µM
SN12C renal
  GI50: 5.21 µM
  TGI: 18.4 µM
MCF7 breast
  GI50: 1.91 µM
  TGI: 14.1 µM
MALME-3M melanoma
  GI50: 1.96 µM
  TGI: 4.44 µM
SK-MEL-28 melanoma
  GI50: 6.7 µM
  TGI: 20.3 µM
KM12 colon
  GI50: 3.43 µM
  TGI: 13.7 µM
ACHN renal
  GI50: 1.58 µM
  TGI: 2.98 µM
OVCAR-8 ovarian
  GI50: 2.16 µM
  TGI: 5.16 µM
HCT-15 colon
  GI50: 2.27 µM
  TGI: 8.58 µM
NCI-H226 lung
  GI50: 5.4 µM
  TGI: 27.5 µM

## COc1ccc(NS(=O)C2CCCCC2)cc1 (stereo not drawn)
COLO 205 colon
  TGI: > 100 µM
SNB-19 CNS
  TGI: > 100 µM
HT29 colon
  TGI: > 100 µM
TK-10 renal
  TGI: > 100 µM
HS 578T breast
  TGI: > 100 µM
OVCAR-5 ovarian
  TGI: > 100 µM
NCI-H23 lung
  TGI: > 100 µM
A549 NSCLC
  TGI: > 100 µM
UACC-257 melanoma
  TGI: > 100 µM
K-562 leukemia
  TGI: > 100 µM
MDA-MB-231 breast
  TGI: > 100 µM
NCI-H522 lung
  TGI: > 100 µM
DU-145 prostate
  TGI: > 100 µM
NCI/ADR-RES ovarian
  TGI: > 100 µM
OVCAR-3 ovarian
  TGI: > 100 µM
UO-31 renal
  TGI: > 100 µM
SF-539 CNS
  TGI: > 100 µM
LOX IMVI melanoma
  TGI: > 100 µM
RPMI-8226 leukemia
  TGI: > 100 µM
EKVX NSCLC
  TGI: > 100 µM
CAKI-1 renal
  TGI: > 100 µM
RXF 393 renal
  TGI: > 100 µM
HOP-62 NSCLC
  TGI: > 100 µM
SW-620 colon
  TGI: > 100 µM
NCI-H460 lung
  TGI: > 100 µM
786-0 renal
  TGI: > 100 µM
HCC-2998 colon
  TGI: > 100 µM
U251 CNS
  TGI: > 100 µM
CCRF-CEM leukemia
  TGI: > 100 µM
SF-268 CNS
  TGI: > 100 µM
SNB-75 CNS
  TGI: > 100 µM
SK-MEL-5 melanoma
  TGI: > 100 µM
IGROV1 ovarian
  TGI: > 100 µM
M14 melanoma
  TGI: > 100 µM
MOLT-4 leukemia
  TGI: > 100 µM
HL-60(TB) leukemia
  TGI: > 100 µM
HCT-116 colon
  TGI: > 100 µM
SF-295 CNS
  TGI: > 100 µM
MDA-MB-435
  TGI: > 100 µM
SR leukemia
  TGI: > 100 µM
SN12C renal
  TGI: > 100 µM
MCF7 breast
  TGI: > 100 µM
MALME-3M melanoma
  TGI: > 100 µM
SK-MEL-28 melanoma
  TGI: > 100 µM
KM12 colon
  TGI: > 100 µM
ACHN renal
  TGI: > 100 µM
OVCAR-8 ovarian
  TGI: > 100 µM
HCT-15 colon
  TGI: > 100 µM
NCI-H226 lung
  TGI: > 100 µM

## C=C1C(=O)O[C@H]2C1C[C@@H](O)[C@@]1(C)OC1CC[C@@]1(C)O[C@H]21 (stereo partly drawn)
SK-MEL-2 melanoma
  TGI: 47.1 µM
COLO 205 colon
  TGI: 25.8 µM
SNB-19 CNS
  TGI: > 100 µM
HT29 colon
  TGI: 98.9 µM
TK-10 renal
  TGI: 35.3 µM
HS 578T breast
  TGI: 98.8 µM
SK-OV-3 ovarian
  TGI: > 100 µM
OVCAR-5 ovarian
  TGI: 63.9 µM
NCI-H23 lung
  TGI: 37.4 µM
A549 NSCLC
  TGI: > 100 µM
OVCAR-4 ovarian
  TGI: 30.3 µM
UACC-257 melanoma
  TGI: 42.3 µM
K-562 leukemia
  TGI: 32.5 µM
MDA-MB-231 breast
  TGI: 40.7 µM
NCI-H522 lung
  TGI: 20 µM
DU-145 prostate
  TGI: > 100 µM
NCI/ADR-RES ovarian
  TGI: 64 µM
HOP-92 NSCLC
  TGI: 32.6 µM
UO-31 renal
  TGI: 32.5 µM
LOX IMVI melanoma
  TGI: 27.5 µM
RPMI-8226 leukemia
  TGI: 32.1 µM
EKVX NSCLC
  TGI: 36 µM
CAKI-1 renal
  TGI: 34.1 µM
RXF 393 renal
  TGI: 34.4 µM
SW-620 colon
  TGI: 38.5 µM
NCI-H460 lung
  TGI: > 100 µM
786-0 renal
  TGI: 40.9 µM
HCC-2998 colon
  TGI: 30.7 µM
U251 CNS
  TGI: > 100 µM
CCRF-CEM leukemia
  TGI: 23.1 µM
PC-3 prostate
  TGI: 83.9 µM
SF-268 CNS
  TGI: > 100 µM
SNB-75 CNS
  TGI: > 100 µM
SK-MEL-5 melanoma
  TGI: 29.6 µM
UACC-62 melanoma
  TGI: 31.4 µM
M14 melanoma
  TGI: 31.3 µM
MOLT-4 leukemia
  TGI: 24.8 µM
HCT-116 colon
  TGI: 34.3 µM
SF-295 CNS
  TGI: > 100 µM
MDA-MB-435
  TGI: 60 µM
SR leukemia
  TGI: 39.8 µM
SN12C renal
  TGI: 42.4 µM
MCF7 breast
  TGI: 29 µM
MALME-3M melanoma
  TGI: 29.2 µM
SK-MEL-28 melanoma
  TGI: 38.8 µM
KM12 colon
  TGI: 53.2 µM
ACHN renal
  TGI: 27 µM
OVCAR-8 ovarian
  TGI: > 100 µM
HCT-15 colon
  TGI: 37.9 µM
